The record followed here is patent US20100099614A1, “Antimicrobial Peptides and Methods of Use” (priority 2008, published 2010).

The test system of data set [1] is Mycobacterium tuberculosis strain H37Rv.
Data set [2] can be described thus: Helical structure by circular dichroism spectroscopy. The format is physicochemical. The note with it: 222 nm. The procedure:
The mean residue molar ellipticities of peptides were determined by circular dichroism (CD) spectroscopy, using a Jasco J-810 spectropolarimeter (Easton, Md.) at 5° C. under benign (non-denaturing) conditions (50 mM NaH2PO4/Na2HPO4/100 mM KCl, pH 7.0), hereafter referred to as benign buffer, as well as in the presence of an α-helix inducing solvent, 2,2,2-trifluoroethanol, TFE, (50 mM NaH2PO4/Na2HPO4/[…], pH 7.0 buffer/50% TFE). A 10-fold dilution of an approximately […] stock solution of the peptide analogs was loaded into a 0.1 cm quartz cell and its ellipticity scanned from 195 to 250 nm. The values of molar ellipticities of the peptide analogs at a wavelength of 222 nm were used to estimate the relative α-helicity of the peptides.
A general note: Circular dichroism is the unequal absorption of left and right circularly polarised light.

Read-outs that look alike come from different tables or passages of the source.

For `CC[C@@H](C)[C@@H](NC(=O)[C@@H](C)NC(=O)[C@@H](CCCCN)NC(=O)[C@@H](CC(C)C)NC(=O)[C@@H](C)NC(=O)[C@H](NC(=O)[C@@H](Cc1c[nH]cn1)NC(=O)[C@@H](CC(C)C)NC(=O)[C@H](NC(=O)[C@H](NC(=O)[C@@H](CCCCN)NC(=O)[C@@H](CCCCN)NC(=O)[C@@H](C)NC(=O)[C@@H](CO)NC(=O)[C@@H](CCCCN)NC(=O)[C@@H](Cc1ccccc1)NC(=O)[C@H](NC(=O)[C@@H](CCCCN)NC(=O)[C@@H](CC(C)C)NC(=O)[C@@H](Cc1ccccc1)NC(=O)[C@@H](CO)NC(=O)[C@@H](CCCCN)NC(=O)[C@@H](Cc1c[nH]c2ccccc12)NC(=O)[C@@H](CCCCN)NC(C)=O)[C@H](C)O)[C@H](C)O)C(C)C)[C@H](C)O)C(=O)N[C@H](CO)C(=O)N[C@H](CO)C(N)=O` [D1], in data set [1], the “Anti-tuberculosis activity MIC” value stood at 70.7 ± 14.8 µg/mL and the “Anti-tuberculosis activity to H37Rv strain Fold (compared to D4)” value stood at 2.3 fold. In data set [1] (H37Rv), the “Anti-tuberculosis activity MIC” value came to 23.6 ± 5.0 µM and the “Anti-tuberculosis activity to H37Rv strain MIC” value stood at 23.6 µM. In data set [1] (further experiments, […]), the “Anti-tuberculosis activity to H37Rv strain MIC” value turned out to be 70.7 µg/mL. For the same compound, the “50% TFE [θ]222 (mean residue molar ellipticity)” value in data set [2] (benign buffer containing 50% trifluoroethanol) is reported as 34,100 deg cm^2/dmol. In data set [2] (benign conditions (100 mM KCl, 50 mM NaH2PO4/Na2HPO4, pH 7.0)), the “Benign [θ]222 (mean residue molar ellipticity)” value is given as 1,150 deg cm^2/dmol.
